Assay results from paper PMC9993459, “A novel selective spleen tyrosine kinase inhibitor SKI-O-703 (cevidoplenib) ameliorates lupus nephritis and serum-induced arthritis in murine models” (Clinical and Experimental Immunology, 2022).
“Also recorded” adds a separate entry of the source.

Columns and labels:
Zap70 = target: T1, Zap70 (Homo sapiens, UniProt P43403); assay: Immunoblotting of Zap70 phosphorylation in TCR-stimulated T cells; type: cell-based; conditions: 0.3–10 μM
T1 construct: endogenous in cells; host or cells: human peripheral T cells sorted from PBMC, stimulated with anti-CD3 and anti-CD28

FGFR2 = FGFR2 (Homo sapiens, UniProt P21802); assay: Kinase assay (LANCE Ultra TR-FRET), FGFR2; type: biochemical
Procedure: (§1) Kinase assays were conducted in 384-well plates using LANCE ultra 66 time-resolved fluorescence resonance energy transfer (TR-FRET) methods, according to the manufacturer’s instructions (Perkin-Elmer). In brief, each kinase was pre-incubated with a serially diluted compound for 30 min, incubated with ULight poly-GT peptide substrate and ATP for up to 1 h. Thirty minutes after adding Eu-labeled anti-phosphopeptides Ab diluted in LANCE Detection Buffer, LANCE signals were measured with an EnVision multilabel reader (Perkin-Elmer).

Jak3 = Jak3 (Homo sapiens, UniProt P52333); assay: Kinase assay (LANCE Ultra TR-FRET), Jak3; type: biochemical
Procedure: as §1

AuroraB = AuroraB (Homo sapiens, UniProt Q96GD4); assay: Kinase assay (LANCE Ultra TR-FRET), AuroraB; type: biochemical
Procedure: as §1

Jak2 = Jak2 (Homo sapiens, UniProt O60674); assay: Kinase assay (LANCE Ultra TR-FRET), Jak2; type: biochemical
Procedure: as §1

[1] = target: T2, phosphorylated Syk (p-Syk) in THP-1 cells (Homo sapiens, UniProt P43405); assay: p-Syk ELISA in IgG-stimulated THP-1 cells (FcγR signal); type: cell-based
T2 construct: endogenous in cells; host or cells: Ramos (ATCC), THP-1 (ATCC), human CD14+ monocytes (Lonza)
Procedure: THP-1 and Ramos cell lines and human CD14^+ monocytes were purchased from the American Type Culture Collection (ATCC) and Lonza, respectively. After treatment with Syk inhibitors for 1 h, THP-1 cells and monocytes were stimulated for 15 min with 100 μg/ml human IgG (Invitrogen), and Ramos cells were stimulated with 2 μg/ml anti-human IgM monoclonal Ab (mAb) (Bathyl). Cells were lysed in RIPA buffer containing 1% NP-40, 1% sodium deoxycholate, 0.1% SDS, and a mixture of protease and phosphatase inhibitors (Thermo Scientific). The lysates were assayed by standard immunoblotting methods and ELISA. Primary Abs used for immunoblotting were anti-phospho-Syk ([…]), anti-phospho-Vav (Y174), anti-phospho-PLCγ1 (Y1217) and anti-phospho-BLNK (Y96) Abs (all from Cell Signaling). ELISAs to detect phospho-Syk (Y525/526) were performed according to the manufacturer’s protocol (Cell Signaling).
Ramos cells (A), human primary monocytes (B), and THP cells (C) were pretreated with inhibitors at the indicated concentrations and stimulated with anti-human IgM (A) and human IgG (B and C). […] The relative intensities of protein phosphorylation levels were quantitated with reference to each lane of β-actin control bands. (D) Ramos cells, human primary monocytes, and THP cells were treated as in A–C for 24 h and levels of phosphorylated Syk (p-Syk) were measured by ELISA.

human peripheral T cells = assay: IL-2 production by activated T cells (ELISA); type: cell-based; conditions: fold lower than tofacitinib
Procedure: Supplementary F igure 1. SKI -O-592 and - 703 s p a re TCR- mediated signaling in T cells
(A) The stru cture of SKI-O-703. (B-D) Human per ipheral T cells sorted fro m human peripheral blood mononuclear cells (B and D) and mouse primary T cells sorted from spleen (C ) wer e stimulated with 5 µ g/ml anti- CD3 and 2 µ g/ml anti- CD28 m Abs in the presence or absence of inhibitors as indicated. Af ter one hour (B) and 24 h ours (C and D) of culture, cells we re assaye d […]
by immunoblotting (B), FA C S ( C), and ELISA (D). […]
of Zap70 and its downstream target PLCγ1. It’s effect on the suppression of IL-2 production […]
Supplementary F igure 2. Gating strategy for FACS of spleen cells
Erythrocyte-d epleted mo use spleen cells w ere assayed by FACS. Whole live cells were gated as shown: plasma cells (C D19lo/- CD138hi), GC B cells (CD19+ CD138- GL-7h i FA S hi), follicular B cells (CD19+ CD43- CD23hi CD21-), marginal zone B cells (CD19+ C D43- CD21hi CD23lo ), and Tfh cells (CD4+ CXCR5+ PD-1hi).
Supplementary Figure 3. Differential susceptibility of short-lived and long-lived plasma […]
When spleen cells from NZB/W mice were assay ed by FACS as in Fig. 5, they were stained intracellularly with anti- Ki-67 mAb to distinguish Ki-67+ dividing cells from Ki-67- non-dividing cells among t h e CD138hi population. […]

[2] = target: T3, phosphorylation of Syk in mouse primary B cells (Mus musculus, UniProt P48025); assay: p-Syk by FACS in stimulated mouse primary B cells; type: cell-based; conditions: BCR and CD40 stimulation
T3 construct: endogenous in cells; host or cells: mouse primary B cells (splenic CD19+ B cells of C57BL/6 mice)
Source text: Figure 1: in vitro inhibitory effects of SKI-O-592 and -703 on Syk in B cells and monocytes. Ramos cells (A), human primary monocytes (B), and THP cells (C) were pretreated with inhibitors at the indicated concentrations and stimulated with anti-human IgM (A) and human IgG (B and C). The cells were then lysed and assayed by immunoblotting methods. The relative intensities of protein phosphorylation levels were quantitated with reference to each lane of β-actin control bands. (D) Ramos cells, human primary monocytes, and THP cells were treated as in A–C for 24 h and levels of phosphorylated Syk (p-Syk) were measured by ELISA. (E) Mouse primary B cells were stimulated with anti-IgM mAb for 60 min in the presence or absence of SKI-O-703 and assayed for p-Syk by FACS. A representative FACS profile and data on the dose-response of mean fluorescence intensity (MFI) are shown. The data are representative of two independent experiments.

Jak3, sequence (P52333 whole entry, species assumed): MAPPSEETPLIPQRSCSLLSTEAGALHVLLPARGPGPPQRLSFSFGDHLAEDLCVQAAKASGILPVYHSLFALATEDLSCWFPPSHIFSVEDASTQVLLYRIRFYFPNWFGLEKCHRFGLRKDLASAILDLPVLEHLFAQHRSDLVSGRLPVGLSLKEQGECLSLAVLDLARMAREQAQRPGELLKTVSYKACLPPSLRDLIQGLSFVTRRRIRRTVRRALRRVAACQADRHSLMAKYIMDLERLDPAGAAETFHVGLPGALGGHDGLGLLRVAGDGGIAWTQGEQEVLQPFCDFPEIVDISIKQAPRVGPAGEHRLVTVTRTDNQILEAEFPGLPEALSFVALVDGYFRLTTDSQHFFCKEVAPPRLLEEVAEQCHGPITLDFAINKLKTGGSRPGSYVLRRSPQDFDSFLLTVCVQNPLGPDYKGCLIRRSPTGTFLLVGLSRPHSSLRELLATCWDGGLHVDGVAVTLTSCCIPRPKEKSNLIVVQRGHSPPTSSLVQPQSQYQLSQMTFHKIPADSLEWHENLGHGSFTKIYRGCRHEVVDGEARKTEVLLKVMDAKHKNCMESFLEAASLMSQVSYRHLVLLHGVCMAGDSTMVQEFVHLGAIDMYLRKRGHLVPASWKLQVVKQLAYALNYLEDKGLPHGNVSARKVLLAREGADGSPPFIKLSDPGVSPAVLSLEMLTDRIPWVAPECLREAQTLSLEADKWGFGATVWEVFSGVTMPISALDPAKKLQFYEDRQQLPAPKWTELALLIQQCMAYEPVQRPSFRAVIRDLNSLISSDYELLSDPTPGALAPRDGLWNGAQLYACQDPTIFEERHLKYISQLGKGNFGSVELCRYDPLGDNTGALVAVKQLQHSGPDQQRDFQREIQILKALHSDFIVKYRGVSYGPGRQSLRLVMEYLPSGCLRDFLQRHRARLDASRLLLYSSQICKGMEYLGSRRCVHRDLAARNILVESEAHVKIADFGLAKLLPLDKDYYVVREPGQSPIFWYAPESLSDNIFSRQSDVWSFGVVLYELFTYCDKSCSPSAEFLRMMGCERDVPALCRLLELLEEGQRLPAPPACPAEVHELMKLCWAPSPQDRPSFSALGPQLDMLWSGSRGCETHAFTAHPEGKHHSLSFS
T1 sequence (P43403 whole entry): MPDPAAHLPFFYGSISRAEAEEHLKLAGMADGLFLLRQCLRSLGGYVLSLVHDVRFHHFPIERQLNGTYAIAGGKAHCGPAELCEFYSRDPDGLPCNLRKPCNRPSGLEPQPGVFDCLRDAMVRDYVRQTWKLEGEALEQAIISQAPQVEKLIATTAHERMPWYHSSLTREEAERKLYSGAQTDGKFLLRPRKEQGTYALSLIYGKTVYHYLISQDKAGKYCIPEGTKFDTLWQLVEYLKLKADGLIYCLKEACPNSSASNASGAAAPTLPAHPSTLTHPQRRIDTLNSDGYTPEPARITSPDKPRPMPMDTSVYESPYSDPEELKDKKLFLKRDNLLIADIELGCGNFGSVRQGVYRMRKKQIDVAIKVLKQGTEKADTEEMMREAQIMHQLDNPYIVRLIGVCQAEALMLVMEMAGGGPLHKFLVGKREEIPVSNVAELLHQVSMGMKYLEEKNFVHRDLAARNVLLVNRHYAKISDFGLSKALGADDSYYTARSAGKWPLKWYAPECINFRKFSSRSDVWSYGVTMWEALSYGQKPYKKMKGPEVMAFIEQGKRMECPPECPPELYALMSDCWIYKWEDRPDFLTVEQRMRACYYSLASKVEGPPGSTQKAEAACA
FGFR2, sequence (P21802 22-821, species assumed): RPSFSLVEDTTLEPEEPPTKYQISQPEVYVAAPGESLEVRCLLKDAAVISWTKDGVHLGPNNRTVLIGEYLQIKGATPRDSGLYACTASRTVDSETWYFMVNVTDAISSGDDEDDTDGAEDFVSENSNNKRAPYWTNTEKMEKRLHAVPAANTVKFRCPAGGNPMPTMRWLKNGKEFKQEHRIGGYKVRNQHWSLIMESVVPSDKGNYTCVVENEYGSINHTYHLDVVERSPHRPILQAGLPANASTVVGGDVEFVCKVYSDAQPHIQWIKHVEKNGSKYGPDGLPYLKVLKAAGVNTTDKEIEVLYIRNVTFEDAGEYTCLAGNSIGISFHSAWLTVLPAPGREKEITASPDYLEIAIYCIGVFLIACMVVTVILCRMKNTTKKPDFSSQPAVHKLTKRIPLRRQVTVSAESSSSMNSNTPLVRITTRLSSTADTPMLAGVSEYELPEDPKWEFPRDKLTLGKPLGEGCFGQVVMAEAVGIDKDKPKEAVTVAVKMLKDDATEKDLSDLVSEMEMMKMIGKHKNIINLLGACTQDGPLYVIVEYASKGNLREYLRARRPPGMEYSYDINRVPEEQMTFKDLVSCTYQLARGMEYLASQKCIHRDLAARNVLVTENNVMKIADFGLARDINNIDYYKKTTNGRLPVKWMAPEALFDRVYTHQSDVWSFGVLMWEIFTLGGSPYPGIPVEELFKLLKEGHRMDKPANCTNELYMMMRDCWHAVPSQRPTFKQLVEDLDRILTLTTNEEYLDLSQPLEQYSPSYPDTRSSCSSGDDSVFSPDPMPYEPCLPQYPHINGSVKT
Jak2, sequence (O60674 whole entry, species assumed): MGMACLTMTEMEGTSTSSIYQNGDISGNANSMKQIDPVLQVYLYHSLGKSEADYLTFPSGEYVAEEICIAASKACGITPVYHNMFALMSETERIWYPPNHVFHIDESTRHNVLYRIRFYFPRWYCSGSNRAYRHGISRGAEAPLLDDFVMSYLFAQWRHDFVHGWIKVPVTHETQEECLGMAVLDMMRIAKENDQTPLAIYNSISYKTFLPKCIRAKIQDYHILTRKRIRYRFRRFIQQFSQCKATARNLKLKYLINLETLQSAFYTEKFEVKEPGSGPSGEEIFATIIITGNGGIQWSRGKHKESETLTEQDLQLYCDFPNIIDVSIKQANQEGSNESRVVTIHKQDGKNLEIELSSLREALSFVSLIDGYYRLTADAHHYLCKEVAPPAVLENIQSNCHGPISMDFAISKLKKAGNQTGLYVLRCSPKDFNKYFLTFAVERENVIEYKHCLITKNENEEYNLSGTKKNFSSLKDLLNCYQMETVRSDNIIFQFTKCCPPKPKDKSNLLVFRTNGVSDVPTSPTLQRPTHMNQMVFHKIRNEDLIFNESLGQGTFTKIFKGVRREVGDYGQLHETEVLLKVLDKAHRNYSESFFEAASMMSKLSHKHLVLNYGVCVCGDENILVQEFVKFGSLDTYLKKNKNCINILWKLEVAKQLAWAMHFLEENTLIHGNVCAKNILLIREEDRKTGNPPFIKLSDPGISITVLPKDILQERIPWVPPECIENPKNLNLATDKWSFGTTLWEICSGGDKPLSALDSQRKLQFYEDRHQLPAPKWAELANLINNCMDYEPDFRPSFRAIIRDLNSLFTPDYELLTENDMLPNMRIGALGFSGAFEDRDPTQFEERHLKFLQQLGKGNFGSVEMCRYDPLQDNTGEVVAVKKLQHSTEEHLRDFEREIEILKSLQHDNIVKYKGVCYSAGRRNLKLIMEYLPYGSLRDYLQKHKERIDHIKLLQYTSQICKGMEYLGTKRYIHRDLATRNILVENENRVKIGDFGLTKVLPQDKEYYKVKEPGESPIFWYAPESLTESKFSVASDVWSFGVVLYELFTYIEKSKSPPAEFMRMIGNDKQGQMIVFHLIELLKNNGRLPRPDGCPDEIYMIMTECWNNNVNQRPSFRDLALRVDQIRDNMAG
AuroraB, sequence (Q96GD4 whole entry): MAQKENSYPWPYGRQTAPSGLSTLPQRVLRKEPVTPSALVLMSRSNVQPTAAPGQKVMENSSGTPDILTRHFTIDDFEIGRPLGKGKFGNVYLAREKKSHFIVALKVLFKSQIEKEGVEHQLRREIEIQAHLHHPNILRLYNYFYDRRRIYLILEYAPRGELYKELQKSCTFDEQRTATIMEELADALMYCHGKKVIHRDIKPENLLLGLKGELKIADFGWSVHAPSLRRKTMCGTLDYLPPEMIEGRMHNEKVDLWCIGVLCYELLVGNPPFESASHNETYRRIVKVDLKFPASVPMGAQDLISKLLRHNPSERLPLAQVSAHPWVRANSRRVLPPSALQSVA
T3 sequence (P48025 whole entry): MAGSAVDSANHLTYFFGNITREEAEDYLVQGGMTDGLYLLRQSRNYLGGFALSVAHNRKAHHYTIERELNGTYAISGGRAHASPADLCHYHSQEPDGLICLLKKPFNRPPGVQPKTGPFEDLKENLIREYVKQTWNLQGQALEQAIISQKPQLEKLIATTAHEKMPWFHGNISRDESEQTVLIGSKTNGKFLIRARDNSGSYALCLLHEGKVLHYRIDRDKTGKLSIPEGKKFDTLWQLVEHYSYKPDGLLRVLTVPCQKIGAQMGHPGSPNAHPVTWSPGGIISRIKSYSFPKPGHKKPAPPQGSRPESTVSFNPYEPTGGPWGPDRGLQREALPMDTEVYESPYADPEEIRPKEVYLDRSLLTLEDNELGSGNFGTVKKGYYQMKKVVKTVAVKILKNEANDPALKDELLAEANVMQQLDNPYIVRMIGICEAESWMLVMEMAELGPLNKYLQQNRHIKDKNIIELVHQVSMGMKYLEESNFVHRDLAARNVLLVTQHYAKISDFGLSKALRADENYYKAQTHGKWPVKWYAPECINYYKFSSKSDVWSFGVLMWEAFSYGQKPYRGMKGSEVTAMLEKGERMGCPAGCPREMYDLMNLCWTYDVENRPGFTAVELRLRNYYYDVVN

| Compound | Phosphorylation of Zap70 and its downstream target PLCγ1 (Zap70) | Ratio to Syk (FGFR2) (FGFR2; IC50 ratio to Syk) | IC50 (FGFR2; kinase activity, TR-FRET) | Ratio to Syk (Jak3) (Jak3; IC50 ratio to Syk) | IC50 (Jak3; kinase activity, TR-FRET) | Ratio to Syk (AuroraB) (AuroraB; IC50 ratio to Syk) | IC50 (AuroraB; kinase activity, TR-FRET) | Ratio to Syk (Jak2) (Jak2; IC50 ratio to Syk) | IC50 (Jak2; kinase activity, TR-FRET) | IC50 [1] | Potency on IL-2 production relative to tofacitinib (IC50) (human peripheral T cells) | Phosphorylation of Syk in mouse primary B cells [2] |
| --- | --- | --- | --- | --- | --- | --- | --- | --- | --- | --- | --- | --- |
| Cc1nn(-c2ccnc(Nc3ccc4c(c3)c(C(=O)C3CC3)cn4C)n2)cc1CN1C[C@H](O)CO1 [SKI-O-592] | did not inhib it phosphorylation; also recorded: failed to affect | >1623 | > 10 µM | 943 | 5.81 µM | >1623 | > 10 µM | 302 | 1.86 µM | 0.266 µM | 25 fold | – |
| CS(=O)(=O)O.CS(=O)(=O)O.Cc1nn(-c2ccnc(Nc3ccc4c(c3)c(C(=O)C3CC3)cn4C)n2)cc1CN1C[C@H](O)CO1 [SKI-O-703, (S)-cyclopropyl(5-((4-(4-((4-hydroxyisoxazolidin-2-yl)methyl)-3-methyl-1H-pyrazol-1-yl)pyrimidin-2-yl)amino)-1-methyl-1H-indol-3-yl)methanone dimesylate] | – | – | – | – | – | – | – | – | – | – | – | reduced the phosphorylation of Syk |
